Data as given in patent publication US20110162437A1, “Biomarker for Mitochondrial Toxicity Associated with Phospholipidosis” (priority 2006, published 2011).
Several values for one entry are separate records, joined by “and”; a condition that tells them apart may be missing. Equal entries are not always repeated.

Key:
basic pKa value = type: physicochemical
lymphocytes = test: Electron microscopic examination of buffy coat lymphocytes for lamellar bodies (determination of phospholipidosis); type: in vivo, rat; conditions: for Result, PL (grade of severity of phospholipidosis) / lymphocytes %, pos. / lymphocytes positive (with lamellar bodies): individual rats
Protocol: (§1) All animals received (human) care as specified by Swiss law and in accordance with the “Guide for the care and use of laboratory animals” published by the NIH. Male Wistar rats (5 animals/dose-group) were purchased from RCC (Füllingsdorf, Switzerland) and housed individually. Treated animals were dosed orally by gavage with several doses of test compounds (Table 1). Control animals received the same volume of vehicle as placebo. Necropsy was performed 48 (subgroup A) or 168 hours (subgroup B) after a single administration (=Day 1) and urine samples were collected in metabolism cages at 0 to 4° C. (automatically refrigerated by a Tecniplast sampling/cooling unit (RACK B940, Tecniplast, USA)) at the intervals given in the sampling schedule in Table 2 into labelled sample tubes containing 1 ml of an aqueous Na-azide (1%) solution. Before aliquoting, urine volumes were determined.
Blood samples (as much as possible) were withdrawn from all animals at necropsy at about 48 hours after dosing (subgroup A) and about 168 hours after dosing (subgroup B)
The samples were collected from the abdominal aorta or by cardiac puncture under terminal anaesthesia (CO2). A total of at least 2 ml blood was required to gain buffy coat (buffy coat=leukocyte band) samples.
After fixation in 2.5% glutaraldehyde, the buffy coat samples from all animals were embedded in Epon. […] All thin sections were examined ultrastructurally. If possible, 200 lymphocytes per sample were examined for lamellar bodies. The results per sample include the total number of lymphocytes examined, the total number of positive lymphocytes (i.e. with lamellar bodies), the percentage of positive lymphocytes and a grading of severity of phospholipidosis (criteria see table 4)

Male Wistar rats = test: PAG measurement by 1H NMR in urine after single oral dose, ratio versus time-matched controls; type: in vivo, rat; conditions: for PAG: urine, individual animals
Protocol: as §1
Urine samples were taken on day -7,-2,-1, 1, 2, 3, 4, 5, 6 and 7, whereby Day 1 was the Day of dosing.
Immediately after reaching the end of the sampling period, the volume was determined and the samples were centrifuged at 3000 u/min (500 g) for 10 minutes.
Aliquot: Approximately 2 ml was transferred in 1.8 ml cryvials, round bottom, freestanding, with screw caps and septum for NMR-spectroscopic examinations (Bruker Analytik GmbH, Rheinstetten, Germany, Bruker part No. 85372). The vials were stored at −80° C.
Urine samples were prepared and measured on a Bruker 500 MHz NMR instrument according to the COMET 1H-NMR protocol (Keun, H. C et al., (2002) Physiological variation and analytical reproducibility in metabonomic urinalysis. Chem. Res. Tox. 15, 1380-1386) and as described above. In total 467 urine samples were analyzed. After measurement, all data were processed by XWINMR 3.5.6 (Bruker Biospin AG, Fällanden). Representative spectra are depicted in FIG. 2. Phase correction and baseline correction were performed with NMRPROC 0.3 (T. Ebbels, H. Keun; Imperial College). Spectral data were binned using AMIX 2.6 (Bruker Biospin AG, Fällanden) following the COMET Data Processing & Pattern Recognition protocol (Keun, H. C., et al., (2002) Physiological variation and analytical reproducibility in metabonomic urinalysis. Chem. Res. Tox. 15, 1380-1386). QC check procedures (Dieterle F., Ross A., Schlotterbeck G., Senn H. (2006) Probabilistic Quotient Normalization as Robust Method to Account for Dilution of Complex Biological Mixtures. Application in 1H NMR Metabonomics. Anal. Chem. 78, 4281-4290) were applied on binned data to detect outliers. In total 7 outliers were detected and removed from further analysis. All data were mean-centered and normalized using the probabilistic quotient normalization (Dieterle F., Ross A., Schlotterbeck G., Senn H. (2006) Probabilistic Quotient Normalization as Robust Method to Account for Dilution of Complex Biological Mixtures. Application in 1H NMR Metabonomics. Anal. Chem. 78, 4281-4290.). All binned data were annotated and transferred to the ANT (ANT: Affymetrix NMR Toxicology Data System) database.
The exact PAG quantification was performed according to following procedure: • Baseline subtraction of spectra • Integration of PAG peaks ((=7.47 ppm, (=7.39 ppm, (=3.79 ppm, and (=3.7 ppm respectively) and Citrate region ((=2.66-2.74 ppm and 2.50-2.58 ppm). • Quotient normalization (Dieterle F., Ross A., Schlotterbeck G., Senn H. (2006) Probabilistic Quotient Normalization as Robust Method to Account for Dilution of Complex Biological Mixtures. Application in 1H NMR Metabonomics. Anal. Chem. 78, 4281-4290.) • Divide each of the PAG bins by its average (all spectra) to correct for different relaxation times and number of protons • Calculate median out of the PAG bins • Calculate ratio versus time-matched controls

[1] = potential to induce phospholipidosis judged from amphiphilicity and basic pKa; conditions: from reduced amphiphilicity and basic pKa
Description: The structural difference between both molecules can be mainly characterized by the exchange of the piperazine against a morpholine moiety in compound 2.

[2] = 300 mg/kg/day, necropsy 168 hours after application
[3] = 300 mg/kg/day, necropsy 48 hours after application, 300 mg/kg/day
[4] = 300 mg/kg/day, necropsy 168 hours after application, 300 mg/kg/day
[5] = 1500 mg/kg/day, necropsy 48 hours after application, 1500 mg/kg/day
[6] = 1500 mg/kg/day, necropsy 168 hours after application, 1500 mg/kg/day
[7] = rat, low-dosed animals (300 mg/kg)

Structure (SMILES): Cc1ccccc1-c1cc(N2CCN(C)CC2)ncc1N(C)C(=O)C(C)(C)c1cc(C(F)(F)F)cc(C(F)(F)F)c1 [Compound 1, 2-(3,5-Bis-trifluoromethyl-phenyl)-N-methyl-N-[6-(4-methyl-piperazin-1-yl)-4-o-tolyl-pyridin-3-yl]-isobutyramide]
- pKa (basic pKa value): 7.67
- recovery of phospholipidosis 168 hours after application (lymphocytes; 300 mg/kg/day): partial or complete recovery
- phospholipidosis severity (group assessment) (lymphocytes; 300 mg/kg/day, necropsied 48 hours after application): minimal to slight
- incidence of affected lymphocytes (range over animals) (lymphocytes; 300 mg/kg/day, necropsied 48 hours after application, data from 3 animals): 5-12%
- incidence of affected lymphocytes (range over animals) (lymphocytes; [2]): 0-1%
- phospholipidosis severity (group assessment) (lymphocytes; [2]): minimal or not present
- recovery of phospholipidosis within 168 hours after application (lymphocytes; 1500 mg/kg/day): no indications of recovery
- lymphocytes affected (range) (lymphocytes; 1500 mg/kg/day, both time points (48 and 168 hours)): 15-31%
- phospholipidosis severity (group assessment) (lymphocytes; 1500 mg/kg/day, necropsied 48 hours after application): moderate to marked
- incidence of affected lymphocytes (range over animals) (lymphocytes; 1500 mg/kg/day, necropsied 48 hours after application, data from 4 animals): 15-31%
- phospholipidosis severity (group assessment) (lymphocytes; 1500 mg/kg/day, sacrificed 168 hours after application): moderate to marked
- incidence of affected lymphocytes (range over animals) (lymphocytes; 1500 mg/kg/day, sacrificed 168 hours after application, data from 4 animals): 21-31%
- Result, PL (grade of severity of phospholipidosis) (lymphocytes; [3]): 1 (≦5%: minimal) and 2 (>5-15%: slight) (2×)
- lymphocytes %, pos. (lymphocytes; [3]): 5% and 5.7% and 12.2%
- lymphocytes positive (with lamellar bodies) (lymphocytes; [3]): 10 and 8 and 23
- Result, PL (grade of severity of phospholipidosis) (lymphocytes; [4]): 1 (≦5%: minimal)
- lymphocytes %, pos. (lymphocytes; [4]): 0% (2×) and 1.1% and 1% and 0.8%
- lymphocytes positive (with lamellar bodies) (lymphocytes; [4]): 0 (2×) and 2 (2×) and 1
- Result, PL (grade of severity of phospholipidosis) (lymphocytes; [5]): 3 (>15-25%: moderate) (2×) and 4 (>25: marked) (2×) and (2) (>5-15%: slight)
- lymphocytes %, pos. (lymphocytes; [5]): 18.8% and 15.1% and 31% and (5.8) % and 25.7%
- lymphocytes positive (with lamellar bodies) (lymphocytes; [5]): 36 and 19 and 61 and (3) and 29
- Result, PL (grade of severity of phospholipidosis) (lymphocytes; [6]): 4 (>25: marked) (2×) and 3 (>15-25%: moderate) (2×)
- lymphocytes %, pos. (lymphocytes; [6]): 31% and 21% and 28.2% and 24%
- lymphocytes positive (with lamellar bodies) (lymphocytes; [6]): 62 and 42 and 29 and 25
- lymphocytes containing cytoplasmic lamellar bodies (finding in words) (lymphocytes; rats, single oral dose, necropsy 48 or 168 hours after application): seen and occurred dose dependently
- PAG (Male Wistar rats; High_Dose group, Time 0 (within 8 hours before treatment)): 0.3099 and 0.4951 and 0.2661 and 0.1961 and 0.1580 and 0.3419 and 0.1895 and 0.2711 and 0.3305 and 0.4159
- PAG (Male Wistar rats; High_Dose group, Time 8 (within 8 hours after treatment)): 0.8523 and 0.4093 and 0.7986 and 0.5172 and 0.2995 and 0.4361 and 0.5473 and 0.4307 and 1.0174 and 0.3275
- PAG (Male Wistar rats; High_Dose group, Time 24 (within 8 to 24 hours after treatment)): 1.7579 and 1.3035 and 1.4190 and 0.4001 and 0.8788 and 1.2898 and 1.4210 and 1.9488 and 1.6305 and 1.2496
- PAG (Male Wistar rats; High_Dose group, Time −16 (1 day before treatment)): 0.7486 and 0.5615 and 0.6169 and 0.5637 and 0.4281 and 0.4828 and 0.2993 and 0.4535 and 0.5361 and 0.5442
- PAG (Male Wistar rats; High_Dose group, Time −144 (7 days before treatment)): 0.7666 and 0.8823 and 1.0974 and 0.6021 and 1.2709 and 1.0355
- PAG (Male Wistar rats; Low_Dose group, Time 0 (within 8 hours before treatment)): 0.3142 and 0.2440 and 0.3422 and 0.2530 and 0.3700 and 0.6319 and 0.3708 and 0.3307 and 0.2336
- PAG (Male Wistar rats; Low_Dose group, Time 8 (within 8 hours after treatment)): 1.1423 and 0.5270 and 0.3918 and 0.5331 and 0.6815 and 0.2977 and 0.6756 and 0.7527 and 0.4111 and 0.3688
- PAG (Male Wistar rats; Low_Dose group, Time 24 (within 8 to 24 hours after treatment)): 0.6300 and 0.8072 and 1.0165 and 0.7250 and 0.5035 and 0.6637
- PAG (Male Wistar rats; Low_Dose group, Time 48 (2 days after treatment)): 0.7584 and 0.6368 and 0.9878 and 0.6461 and 1.0386 and 0.3452 and 0.5698 and 0.3492 and 0.6477
- PAG (Male Wistar rats; Low_Dose group, Time −16 (1 day before treatment)): 0.2393 and 0.4349 and 0.5528 and 0.5649 and 0.8171 and 0.3201 and 0.5236 and 0.6045 and 0.4646 and 0.2537
- PAG (Male Wistar rats; Low_Dose group, Time −144 (7 days before treatment)): 0.8210 and 1.1559 and 0.9260 and 0.7456 and 0.8081 and 0.6038 and 1.5903 and 1.1241 and 0.9275 and 0.8848
- increase of mean PAG levels compared to time matched controls (Male Wistar rats; rat, high-dosed animals (1500 mg/kg)): 4 fold
- mean PAG levels remaining elevated until the end of the study (Male Wistar rats; rat, high-dosed animals (1500 mg/kg), until 168 h): 3-4 fold
- increase of mean PAG levels compared to time matched controls (factor) (Male Wistar rats; [7]): two
- mean levels of PAG at time points later than 72 h (Male Wistar rats; [7]): fall below control samples
- start of PAG elevation after dosing (Male Wistar rats; rat, single oral dose, both dose groups): 24 h
- dose dependant change of PAG levels in urine (Male Wistar rats; rat, single oral dose, both dose groups, normalized to time matched controls): significant dose dependant elevation
- potential to induce phospholipidosis [1]: high potential
